Data taken from patent publication US9186356B2, “Methods for treating frontotemporal lobar degeneration with ubiquitinated inclusions (FTLD-U)” (Academia Sinica, priority 2011, dated 2015).

Assays:
FTLD-U mice = experiment: Motor function of FTLD-U mice treated with other autophagy inducers (FIG. 5); assay type: in vivo; conditions: tamoxifen 80 mg/Kg s.c. once per day one week, carbamazepine 50 mg/Kg i.p. once per day two weeks, spermidine 50 mg/Kg i.p. once per day one week
Method: Other autophage inducers for administration to the FTLD-U mice include tamoxifen, carbamazepine, calpastatin, minoxidial, spermidine and trehalose. […] Carbamazepine can lower inositol and IP3 levels. Calpastatin is a calpain inhibitor. Minoxidial is a K^+ATP channel opener. Spermidine can decrease ROS and increases beclin 1. The effect of trehalose is unknown. Tamoxifen (80 mg/Kg) was administered via subcutaneous injection, once per day for one week. carbamazepine (50 mg/Kg) was administered i.p. once per day for two weeks. Spermidine (50 mg/Kg) was administered i.p. once per day for one week.

ALS mice (SOD1G93A) = conditions: cited from earlier work

| Compound | motor function deficits (FTLD-U mice) | mitochondria impairment (ALS mice (SOD1G93A)) |
| --- | --- | --- |
| NC(=O)N1c2ccccc2C=Cc2ccccc21 [carbamazepine] | rescued the motor function deficits | – |
| NCCCCNCCCN [spermidine] | rescued the motor function deficits | – |
| CO[C@H]1C[C@@H]2CC[C@@H](C)[C@@](O)(O2)C(=O)C(=O)N2CCCC[C@H]2C(=O)O[C@H]([C@H](C)C[C@@H]2CC[C@@H](O)[C@H](OC)C2)CC(=O)[C@H](C)/C=C(\C)[C@@H](O)[C@@H](OC)C(=O)[C@H](C)C[C@H](C)/C=C/C=C/C=C/1C [rapamycin] | – | more server mitochondria impairment |
| CC/C(=C(\c1ccccc1)c1ccc(OCCN(C)C)cc1)c1ccccc1 [tamoxifen] | rescued the motor function deficits | – |
